Data taken from US12252487B2, “Dominant salt forms of pyrimidine derivatives, and crystal forms thereof” (GUANGDONG RAYNOVENT BIOTECH CO., LTD., priority 2019, dated 2025).
≈ marks a conversion by molar mass, not a printed value. Each block holds one compound with its values, some of them ahead of it.

Experiments:
Type in all cases: physicochemical
[1] = Crystal form transition observed during experiment / post-treatment; conditions: e.g. drying under vacuum at ambient temperature
From the text: The crystal form VII and the crystal form VIII can be obtained by similar method but by different post-treatment means.

[2] = Stability study of crystal forms, XRPD characterization on day 14
Protocol: An amount of sample to be tested was weighed and placed in a dish under conditions including high temperature (60° C.), high humidity (25° C., 92.5% RH), light radiation (25° C., 4500 Lux) and acceleration conditions (40° C., 75% RH), respectively, and sampled for XRPD characterization on day 14. Form I, Form II, Form III were taken for stability study under conditions including high temperature (60° C.), high humidity (25° C., 92.5% RH), light radiation (25° C., 4500 Lux), and acceleration conditions (40° C., 75% RH), and the results are shown in Table 2: […]

[3] = XRPD of crystal form after DVS test
From the text: The crystal form IV is obtained by heating the crystal form III to lose some crystalline water.

[4] = Solubility of Compound 1 in 19 types of solvents at room temperature; conditions: for solubility: thermodynamic from solid
From the text: Compound 1 was detected at room temperature for its solubility in 19 types of solvents. Specially, Compound 1 obtained in Example 1 was taken as sample for detecting its solubility in methanol, ethanol, water, acetonitrile, dioxane and other solvents.

Stability of the crystal form as concluded from crystal form transitions [1]: high stability
SMILES: O=C(O)[C@H]1C2CCC(CC2)[C@@H]1Nc1nc(-c2n[nH]c3ncc(F)cc23)nc(C2CC2)c1F [crystal form VII]

Results on Day 14 (XRPD) ([2]; Acceleration conditions (40° C., 75% RH)): No changes
Results on Day 14 (XRPD) ([2]; Light radiation (25° C., 4500 Lux)): No changes
SMILES: O=C(O)[C@H]1C2CCC(CC2)[C@@H]1Nc1nc(-c2n[nH]c3ncc(F)cc23)nc(C2CC2)c1F [Crystal Form I]

Crystal form change after DVS test (XRPD) [3]: does not change
SMILES: O=C(O)[C@H]1C2CCC(CC2)[C@@H]1Nc1nc(-c2n[nH]c3ncc(F)cc23)nc(C2CC2)c1F [crystal form IV]

Solubility as a whole compared with WX-216 ([4]; 19 solvents, room temperature): better than that of WX-216
solubility ([4]; organic solvent or mixture, solvent Acetone, 3000 μL, not dissolved completely at 50° C.): < 3300 µg/mL
solubility ([4]; organic solvent or mixture, solvent Acetonitrile, 3000 μL, not dissolved completely at 50° C.): < 3300 µg/mL
solubility ([4]; organic solvent or mixture, solvent Dichloromethane, 3000 μL, not dissolved completely at 50° C.): < 3300 µg/mL
solubility ([4]; organic solvent or mixture, solvent Dimethylformamide, 200 μL): > 50000 µg/mL
solubility ([4]; organic solvent or mixture, solvent Dimethylsulfoxide, 200 μL): > 50000 µg/mL
solubility ([4]; organic solvent or mixture, solvent Dioxane, 3000 μL, not dissolved completely at 50° C.): < 3300 µg/mL
solubility ([4]; organic solvent or mixture, solvent Ethanol, 3000 μL, not dissolved completely at 50° C.): < 3300 µg/mL
solubility ([4]; organic solvent or mixture, solvent Ethyl acetate, 3000 μL, not dissolved completely at 50° C.): < 3300 µg/mL
solubility ([4]; organic solvent or mixture, solvent Ethyl formate, 3000 μL, not dissolved completely at 50° C.): < 3300 µg/mL
solubility ([4]; organic solvent or mixture, solvent Ethylene glycol dimethyl ether, 3000 μL, not dissolved completely at 50° C.): < 3300 µg/mL
solubility ([4]; organic solvent or mixture, solvent Ethylene glycol monomethyl ether, 200 μL): > 50000 µg/mL
solubility ([4]; organic solvent or mixture, solvent Iso-propanol, 3000 μL, not dissolved completely at 50° C.): < 3300 µg/mL
solubility ([4]; organic solvent or mixture, solvent Methanol, 500 μL): 20000 to 50000 µg/mL (≈ 45.4 to 114 mM)
solubility ([4]; organic solvent or mixture, solvent Methyl isobutyl ketone, 3000 μL, not dissolved completely at 50° C.): < 3300 µg/mL
solubility ([4]; organic solvent or mixture, solvent Methyl tert-butyl ether, 3000 μL, not dissolved completely at 50° C.): < 3300 µg/mL
solubility ([4]; organic solvent or mixture, solvent N-hexane, 3000 μL, not dissolved completely at 50° C.): < 3300 µg/mL
solubility ([4]; organic solvent or mixture, solvent N-propanol, 3000 μL, not dissolved completely at 50° C.): < 3300 µg/mL
solubility ([4]; organic solvent or mixture, solvent Tetrahydrofuran, 3000 μL, not dissolved completely at 50° C.): < 3300 µg/mL
solubility ([4]; solvent Water, 200 μL): > 50000 µg/mL
SMILES: O=C(O)[C@H]1C2CCC(CC2)[C@@H]1Nc1nc(-c2n[nH]c3ncc(F)cc23)nc(C2CC2)c1F [Compound 1]

Stability of the crystal form as concluded from crystal form transitions [1]: intermediate metastable crystal form
SMILES: O=C(O)[C@H]1C2CCC(CC2)[C@@H]1Nc1nc(-c2n[nH]c3ncc(F)cc23)nc(C2CC2)c1F [crystal form IX]

Stability of the crystal form as concluded from crystal form transitions [1]: high stability
SMILES: O=C(O)[C@H]1C2CCC(CC2)[C@@H]1Nc1nc(-c2n[nH]c3ncc(F)cc23)nc(C2CC2)c1F [crystal form VIII]

Stability of the crystal form as concluded from crystal form transitions [1]: high stability
SMILES: O=C(O)[C@H]1C2CCC(CC2)[C@@H]1Nc1nc(-c2n[nH]c3ncc(F)cc23)nc(C2CC2)c1F [crystal form V]

Stability of the crystal form as concluded from crystal form transitions [1]: unstable crystal form
SMILES: O=C(O)[C@H]1C2CCC(CC2)[C@@H]1Nc1nc(-c2n[nH]c3ncc(F)cc23)nc(C2CC2)c1F [crystal form VI]

Results on Day 14 (XRPD) ([2]; High humidity (25° C., 92.5% RH)): No changes
Results on Day 14 (XRPD) ([2]; High temperature (60° C.)): No changes
SMILES: O=C(O)[C@H]1C2CCC(CC2)[C@@H]1Nc1nc(-c2n[nH]c3ncc(F)cc23)nc(C2CC2)c1F [Crystal Form II]
